According to PMC10742785, “Screening and Characterization of an α-Amylase Inhibitor from Carya cathayensis Sarg. Peel” (Foods, 2023):

Molecular target: T1, α-amylase (hog pancreas) (Sus scrofa, UniProt P00690)
T1 construct: gene AMY2
T1 sequence (P00690 16-511): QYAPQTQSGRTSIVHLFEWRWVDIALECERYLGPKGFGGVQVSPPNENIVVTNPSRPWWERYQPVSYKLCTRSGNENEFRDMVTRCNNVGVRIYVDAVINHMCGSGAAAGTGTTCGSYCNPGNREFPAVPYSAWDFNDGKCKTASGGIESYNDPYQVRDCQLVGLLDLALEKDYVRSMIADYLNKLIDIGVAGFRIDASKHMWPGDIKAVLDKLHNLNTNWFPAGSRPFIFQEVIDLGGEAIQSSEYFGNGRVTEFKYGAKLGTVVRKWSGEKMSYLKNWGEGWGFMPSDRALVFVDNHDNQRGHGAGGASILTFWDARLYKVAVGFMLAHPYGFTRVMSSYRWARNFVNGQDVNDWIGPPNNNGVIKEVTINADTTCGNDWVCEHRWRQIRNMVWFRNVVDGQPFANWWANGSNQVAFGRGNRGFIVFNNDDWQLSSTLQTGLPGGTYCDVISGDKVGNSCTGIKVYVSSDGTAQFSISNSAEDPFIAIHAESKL
Test: DNS starch hydrolysis assay with hog pancreas α-amylase; Lineweaver–Burk, Dixon and Eisenthal–Cornish-Bowden kinetics
Assay type: biochemical

O=C(/C=C/c1ccc(O)cc1)O[C@@H]1CC(O)(C(=O)O)C[C@@H](O)C1O (stereo partly shown) [5-CQA, 5-O-p-coumaroylquinic acid]
IC50: 69.4 µM
